PubChem BioAssay (NCI)
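Cultured in 96-well plates, cells were exposed to test compound for 48 hours across five concentrations. The concentration for 50% growth inhibition is given as GI50. TGI marks complete inhibition of growth.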

Legend:
Experiment in all cases: NCI tumour cell line growth inhibition, 48 h
HT29 colon = tested on: HT29 colon
SNB-75 CNS = tested on: SNB-75 CNS
SK-OV-3 ovarian = tested on: SK-OV-3 ovarian
SF-539 CNS = tested on: SF-539 CNS
SW-620 colon = tested on: SW-620 colon
NCI-H226 lung = tested on: NCI-H226 lung
COLO 205 colon = tested on: COLO 205 colon
ACHN renal = tested on: ACHN renal
HCC-2998 colon = tested on: HCC-2998 colon
RPMI-8226 leukemia = tested on: RPMI-8226 leukemia

| Structure (SMILES) | TGI (HT29 colon) | TGI (SNB-75 CNS) | TGI (SK-OV-3 ovarian) | TGI (SF-539 CNS) | TGI (SW-620 colon) | TGI (NCI-H226 lung) | TGI (COLO 205 colon) | TGI (ACHN renal) | TGI (HCC-2998 colon) | TGI (RPMI-8226 leukemia) | GI50 (COLO 205 colon) |
| --- | --- | --- | --- | --- | --- | --- | --- | --- | --- | --- | --- |
| CN(C)N1C(=C(C#N)C#N)C(c2ccccc2)CC1C#N (centres undefined) | > 100 µM | > 100 µM | > 100 µM | > 100 µM | > 100 µM | > 100 µM | > 100 µM | > 100 µM | > 100 µM | > 100 µM |  |
| Cc1c2ccccc2c(/C=N/NC(=O)CSCC(=O)N/N=C/c2c3ccccc3c(C)c3ccccc23)c2ccccc12 | > 100 µM | > 73.3 µM | > 100 µM | > 56.9 µM | > 100 µM | > 61.1 µM | > 100 µM | > 89 µM | 65.1 µM | 51.9 µM | > 100 µM |
| CN(C)c1ccc(-c2c(C#N)c(-c3ccccc3)n(NS(=O)(=O)c3ccccc3)c(=O)c2C#N)cc1 | > 100 µM | > 100 µM | > 100 µM | > 100 µM | > 100 µM | > 100 µM | > 100 µM | > 100 µM | > 100 µM | 48.6 µM |  |
| N#C/C=C(/NC(=O)Nc1ccccc1)N1CCCC1 | > 100 µM | > 21.4 µM | > 100 µM | > 65.7 µM | > 63.7 µM | > 65.9 µM | > 100 µM | > 57.3 µM | > 53 µM | > 100 µM |  |
| COc1ccc(C2c3cc4c(cc3OC(N3CCOCC3)C2C)OCO4)cc1OC (centres undefined) | 46.8 µM | 21.4 µM | 87.7 µM | 22.1 µM | > 100 µM | 31.7 µM | > 44.2 µM | > 100 µM | > 44.8 µM | > 100 µM |  |
| COC(=O)c1sc2nc(Nc3ccccc3)c(=Nc3ccccc3)sc2c1C | > 100 µM | > 100 µM | > 100 µM | > 100 µM | > 100 µM | > 100 µM | > 100 µM | > 100 µM | > 100 µM | > 100 µM |  |
| O=C1CC(Nc2ccccc2)c2c(Cl)sc(Cl)c21 (centres undefined) | 3.92 µM | 4.52 µM | 26.3 µM | 2.24 µM |  | 24 µM | 2.68 µM | 2.41 µM | 3.39 µM | 0.0461 µM |  |
| O=[N+]([O-])C1=Cc2c(O)ccc(O)c2C2OC=CC12 (centres undefined) | 43.8 µM | 49.5 µM | > 100 µM | 47.5 µM | > 77.4 µM | > 73.8 µM | > 63.8 µM | 29.1 µM | > 57.8 µM | > 100 µM |  |
| COc1cc(O)c2c(=O)c3cccc(C)c3[nH]c2c1 | > 10 µM | > 10 µM | > 10 µM | > 10 µM | > 10 µM | > 10 µM | > 10 µM | > 10 µM | > 10 µM | > 10 µM |  |
| CN(C)CCNc1c(O)c2c(c(O)c1Cl)C(=O)C=CC2=O | 3.29 µM | 6.55 µM | 32.1 µM | 3.28 µM | 3.91 µM | 50.1 µM | 3.47 µM | 9.76 µM | 3.59 µM | 8.14 µM |  |
| O=S(=O)(O)c1cc(O)c(N=NC2S(=O)(=O)OCCOS2(=O)=O)c2ccccc12 | > 100 µM | > 100 µM | > 100 µM | > 100 µM | > 100 µM | > 100 µM | > 100 µM | > 100 µM | > 100 µM | > 100 µM |  |
| O=C(Nc1ccc(Cl)cc1)c1cc(S(=O)(=O)Nc2nc3ncccc3[nH]2)c(SSc2cc(Cl)c(C(=O)Nc3ccc(Cl)cc3)cc2S(=O)(=O)Nc2nc3ncccc3[nH]2)cc1Cl | > 100 µM | > 100 µM | > 100 µM | > 100 µM | > 100 µM | > 100 µM | > 100 µM | > 100 µM | > 100 µM | > 100 µM |  |
| C[C@]12CCC(=O)C=C1CC[C@@H]1[C@@H]2CC[C@]2(C)C(=O)/C(=C/c3ccc([N+](=O)[O-])cc3)C[C@@H]12 | > 100 µM | > 100 µM | > 100 µM | > 100 µM | > 100 µM | > 100 µM | > 100 µM | 19.9 µM | > 100 µM | > 100 µM |  |
| CC1=C[C@H](C[C@]2(C)c3c(c4c(C)cccc4oc3=O)O[C@@H]2C)OC1=O | > 100 µM | > 100 µM | > 100 µM | > 100 µM | 75 µM | > 100 µM | > 100 µM | > 100 µM | > 100 µM | 18.1 µM |  |
| O=[N+]([O-])C(/C(Cl)=C(/Cl)N1CCOCC1)=C1\Nc2ccccc2O1 | > 100 µM | > 100 µM | > 100 µM | > 100 µM | > 100 µM | > 100 µM | > 100 µM | > 100 µM | > 100 µM | > 100 µM |  |
| CCCCOc1ccc(/C=C/C2=[N+](CCO)CCO2)cc1 | 31.4 µM | > 100 µM | > 100 µM | 96.2 µM | 86.5 µM | 70 µM | 54.3 µM | > 100 µM | 48.3 µM | 74.7 µM |  |
| COc1ccc(Nc2nc3ccccc3nc2-c2cccs2)cc1OC | > 10 µM | > 10 µM | > 10 µM | > 10 µM | > 10 µM | > 10 µM | > 10 µM | > 10 µM | > 10 µM | > 10 µM |  |
| Cc1cc2c(cc1Cl)SSc1cc(Cl)c(C)cc1S(=O)(=O)Nc1nc(N)nn1C(O)n1nc(N)nc1NS2(=O)=O | > 10 µM | > 10 µM | > 10 µM | > 10 µM | > 10 µM | > 10 µM | > 10 µM | > 10 µM | > 10 µM | > 10 µM |  |
| CSC(=Nc1ccccc1)c1c(C)[nH]n(-c2ccccc2)c1=O | > 100 µM | > 100 µM | > 100 µM | > 100 µM | > 100 µM | > 100 µM | > 100 µM |  | > 100 µM | > 100 µM |  |
